According to patent US6087337A, “Method for treating benign and malignant proliferative skin disease” (Biomeasure Inc., priority 1993, dated 2000):

Legend:
[1] = test system: insulin, glucagon, and growth hormone release; settings: times more potent than naturally occurring somatostatin; cited from earlier work
[2] = test system: B16-F10 melanoma; test: Response of intradermally implanted B16-F10 melanoma xenografts to topically applied Somatuline BIM-23014C; assay type: in vivo, BALB/c derived athymic nude female mice
Description: Response of Intradermally Implanted B16-F10 Melanoma Xenografts to Topically Applied Somatuline BIM-23014C
Eighteen BALB/c derived athymic nude female mice were implanted intradermally (ID), on the right flank, with a 0.02 to 0.05 ml suspension of in vitro propagated B16-F10 melanoma cells suspended in a normal saline solution. Implantation was done with a 23 gauge needle attached to a 1.0 ml syringe on day 0. Such an intradermal implant of the murine B16-F10 melanoma is essentially orthotopic and gives rise to an extremely fast growing tumor. By day 2, flat melanotic growths were evident at the injection site. The lesions resembled in situ melanomas.
Somatuline (D-β-Nal-Cys-Tyr-D-Trp-Lys-Val-Cys-Thr-NH2, available from Biomeasure, Inc. under the product code BIM-23014C) was added to a 50% DMSO in saline solution at a concentration of 10 mgs/ml. After wiping the skin with a gauze pad wet with isopropyl alcohol, a drop (approximately 0.05 ml) of the Somatuline solution was applied to the skin surface of the mice over the melanotic lesion. The solution was rubbed into the skin for approximately 1 minute with a latex gloved (Baxter Scientific Products/Flexam) finger. Well over half of the drop of Somatuline was not absorbed and was lost after the rubbing-in procedure. The controls were treated identically with 50% DMSO in saline solution without any somatostatin analog. Topical treatments were applied twice daily for 11 days beginning on day 3 post implantation.

Row | Compound | potency relative to naturally occurring somatostatin for the inhibition of insulin, glucagon, and growth hormone release [1] | Tumor Wt. (mgs) Day 12 ([2]; 0.05 ml topical of DMSO/Saline vehicle containing 10 mg/ml, b.i.d., q.d. 3-14, intradermal B16-F10 implant in nude mice, day 12) | growth of the melanotic lesion (tumor growth curves FIG. 1, photographs FIG. 2, days 4, 7, 11) ([2]; topical Somatuline solution 10 mgs/ml in 50% DMSO in saline, twice daily, compared to control mice) | % T/C ([2]; tumor weight day 12, treated vs DMSO/Saline vehicle control, 0.05 ml topical, 10 mg/ml, b.i.d., q.d. 3-14)
1 | cyclo(N-Me-Ala-Tyr-D-Trp-Lys-Val-Phe) | 50-100 times | – | – | –
2 | CC(C)[C@@H]1NC(=O)[C@H](CCCCN)NC(=O)[C@@H](Cc2c[nH]c3ccccc23)NC(=O)[C@H](Cc2ccc(O)cc2)NC(=O)[C@@H](NC(=O)[C@H](N)Cc2ccc3ccccc3c2)CSSC[C@@H](C(=O)N[C@H](C(N)=O)[C@@H](C)O)NC1=O [BIM-23014C, D-β-Nal-Cys-Tyr-D-Trp-Lys-Val-Cys-Thr-NH2] | – | 185.9 ± 47 mgs | clear growth inhibition | 35%
